What was measured:
Settings in all cases: 72 h
Caco-2 [1] = experiment: cell viability relative to DMSO; higher = less toxic
Calu-3 [2] = experiment: as above
HepG2 [3] = experiment: as above
U2OS [4] = experiment: as above
Vero E6 [5] = experiment: as above
Caco-2 [6] = experiment: relative viability EC50 (midpoint between 100% and the lowest measured viability); higher = less toxic
Calu-3 [7] = experiment: as above
HepG2 [8] = experiment: as above
U2OS [9] = experiment: as above
Vero E6 [10] = experiment: as above
Caco-2 [11] = experiment: drug sensitivity score (DSS) for viability; higher = more toxic; extreme values may be limits of the assay
Calu-3 [12] = experiment: as above
HepG2 [13] = experiment: as above
U2OS [14] = experiment: as above
Vero E6 [15] = experiment: as above

## CCOC(=O)c1ccccc1OC(N)=O [ethyl-2-(carbamoyloxy)benzoate]
Caco-2 [1]; 1 nM
  cell viability: 104%
Caco-2 [1]; 10 nM
  cell viability: 91.5%
Caco-2 [1]; 100 nM
  cell viability: 97.1%
Caco-2 [1]; 1000 nM
  cell viability: 106%
Caco-2 [1]; 10000 nM
  cell viability: 96.9%
Calu-3 [2]; 1 nM
  cell viability: 93.2%
Calu-3 [2]; 10 nM
  cell viability: 92.5%
Calu-3 [2]; 100 nM
  cell viability: 98%
Calu-3 [2]; 1000 nM
  cell viability: 122%
Calu-3 [2]; 10000 nM
  cell viability: 103%
HepG2 [3]; 1 nM
  cell viability: 106%
HepG2 [3]; 10 nM
  cell viability: 87.2%
HepG2 [3]; 100 nM
  cell viability: 94.2%
HepG2 [3]; 1000 nM
  cell viability: 83.5%
HepG2 [3]; 10000 nM
  cell viability: 103%
U2OS [4]; 1 nM
  cell viability: 98.6%
U2OS [4]; 10 nM
  cell viability: 103%
U2OS [4]; 100 nM
  cell viability: 100%
U2OS [4]; 1000 nM
  cell viability: 102%
U2OS [4]; 10000 nM
  cell viability: 98.6%
Vero E6 [5]; 1 nM
  cell viability: 109%
Vero E6 [5]; 10 nM
  cell viability: 91.4%
Vero E6 [5]; 100 nM
  cell viability: 102%
Vero E6 [5]; 1000 nM
  cell viability: 106%
Vero E6 [5]; 10000 nM
  cell viability: 103%
Caco-2 [6]
  relative viability EC50: > 10 µM
Calu-3 [7]
  relative viability EC50: > 10 µM
HepG2 [8]
  relative viability EC50: > 10 µM
U2OS [9]
  relative viability EC50: > 10 µM
Vero E6 [10]
  relative viability EC50: > 10 µM
Caco-2 [11]
  drug sensitivity score: 0
Calu-3 [12]
  drug sensitivity score: 0
HepG2 [13]
  drug sensitivity score: 0
U2OS [14]
  drug sensitivity score: 0
Vero E6 [15]
  drug sensitivity score: 0

## C[C@H]1O[C@@H](Oc2c(-c3cc(O)c(O)c(O)c3)oc3cc(O)cc(O)c3c2=O)[C@@H](O)[C@@H](O)[C@@H]1O [myricitrin]
Caco-2 [1]; 1 nM
  cell viability: 100%
Caco-2 [1]; 10 nM
  cell viability: 105%
Caco-2 [1]; 100 nM
  cell viability: 100%
Caco-2 [1]; 1000 nM
  cell viability: 105%
Caco-2 [1]; 10000 nM
  cell viability: 96%
Calu-3 [2]; 1 nM
  cell viability: 92.5%
Calu-3 [2]; 10 nM
  cell viability: 99.2%
Calu-3 [2]; 100 nM
  cell viability: 96.7%
Calu-3 [2]; 1000 nM
  cell viability: 101%
Calu-3 [2]; 10000 nM
  cell viability: 94.4%
HepG2 [3]; 1 nM
  cell viability: 104%
HepG2 [3]; 10 nM
  cell viability: 98.3%
HepG2 [3]; 100 nM
  cell viability: 109%
HepG2 [3]; 1000 nM
  cell viability: 86.6%
HepG2 [3]; 10000 nM
  cell viability: 99.6%
U2OS [4]; 1 nM
  cell viability: 97.9%
U2OS [4]; 10 nM
  cell viability: 97.4%
U2OS [4]; 100 nM
  cell viability: 94.7%
U2OS [4]; 1000 nM
  cell viability: 99.1%
U2OS [4]; 10000 nM
  cell viability: 94.7%
Vero E6 [5]; 1 nM
  cell viability: 99.5%
Vero E6 [5]; 10 nM
  cell viability: 98.5%
Vero E6 [5]; 100 nM
  cell viability: 97.7%
Vero E6 [5]; 1000 nM
  cell viability: 96.1%
Vero E6 [5]; 10000 nM
  cell viability: 93.8%
Caco-2 [6]
  relative viability EC50: > 10 µM
Calu-3 [7]
  relative viability EC50: > 10 µM
HepG2 [8]
  relative viability EC50: > 10 µM
U2OS [9]
  relative viability EC50: > 10 µM
Vero E6 [10]
  relative viability EC50: > 10 µM
Caco-2 [11]
  drug sensitivity score: 0
Calu-3 [12]
  drug sensitivity score: 0
HepG2 [13]
  drug sensitivity score: 0
U2OS [14]
  drug sensitivity score: 0
Vero E6 [15]
  drug sensitivity score: 0

## COC(=O)/C=C/C(=O)N[C@@H]1CC[C@@]2(O)[C@H]3Cc4ccc(O)c5c4[C@@]2(CCN3CC2CC2)[C@H]1O5 [beta-funaltrexamine]
Caco-2 [1]; 1 nM
  cell viability: 104%
Caco-2 [1]; 10 nM
  cell viability: 91.5%
Caco-2 [1]; 100 nM
  cell viability: 90%
Caco-2 [1]; 1000 nM
  cell viability: 94.8%
Caco-2 [1]; 10000 nM
  cell viability: 82.4%
Calu-3 [2]; 1 nM
  cell viability: 95.2%
Calu-3 [2]; 10 nM
  cell viability: 99.5%
Calu-3 [2]; 100 nM
  cell viability: 101%
Calu-3 [2]; 1000 nM
  cell viability: 102%
Calu-3 [2]; 10000 nM
  cell viability: 99.6%
HepG2 [3]; 1 nM
  cell viability: 93.6%
HepG2 [3]; 10 nM
  cell viability: 92.8%
HepG2 [3]; 100 nM
  cell viability: 92.4%
HepG2 [3]; 1000 nM
  cell viability: 90.6%
HepG2 [3]; 10000 nM
  cell viability: 89.2%
U2OS [4]; 1 nM
  cell viability: 104%
U2OS [4]; 10 nM
  cell viability: 98.7%
U2OS [4]; 100 nM
  cell viability: 101%
U2OS [4]; 1000 nM
  cell viability: 96.3%
U2OS [4]; 10000 nM
  cell viability: 89.9%
Vero E6 [5]; 1 nM
  cell viability: 92.4%
Vero E6 [5]; 10 nM
  cell viability: 96.1%
Vero E6 [5]; 100 nM
  cell viability: 93.1%
Vero E6 [5]; 1000 nM
  cell viability: 105%
Vero E6 [5]; 10000 nM
  cell viability: 101%
Caco-2 [6]
  relative viability EC50: > 10 µM
Calu-3 [7]
  relative viability EC50: > 10 µM
HepG2 [8]
  relative viability EC50: > 10 µM
U2OS [9]
  relative viability EC50: > 10 µM
Vero E6 [10]
  relative viability EC50: > 10 µM
Caco-2 [11]
  drug sensitivity score: 0.7
Calu-3 [12]
  drug sensitivity score: 0
HepG2 [13]
  drug sensitivity score: 0
U2OS [14]
  drug sensitivity score: 0
Vero E6 [15]
  drug sensitivity score: 0

— the supplement of paper PMC13380429
